Calls of active or inactive are those of the source. No cut-off for these calls is given here.
Key:
[1] = target: T1, 80S Ribosome (Homo sapiens) (UniProt P08865+P42677+P62753+P15880+P23396+P61247+P62701+P22090+P46782+P62081+P62241+P46781+P46783+P62280+P25398+P62277+P62263+P62841+P62244+P62249+P08708+P62269+P39019+P60866+P63220+P62266+P62847+P62851+P62854+P62979+P62857+P62273+P62861+P39023+P36578+P46777+Q02878+P18124+P62424+P62917+P32969+P27635+P62906+P62913+P30050+P26373+P40429+P50914+P61313+P18621+Q07020+Q02543+P84098+P46778+P35268+P62829+P62750+P83731+P61254+P61353+P46776+P46779+P47914+P62888+P62899+P62910+P49207+P42766+P18077+Q9Y3U8+P83881+P61927+P61513+P63173+P62891+P62945+P05388+P05386); assay: Binding affinity to ribosomal protein S10 in human Hela cells lysates assessed as protein enrichment by Western blotting analysis; assay type: cell-free
[2] = target: T1, 80S Ribosome (Homo sapiens); assay: Binding affinity to 40S ribosomal protein S10 in human Hela cells lysates assessed as protein enrichment by measuring normalized heavy/light ratio at by nano-LC-ESIMS/MS analysis; assay type: cell-free
[3] = target: T1, 80S Ribosome (Homo sapiens); assay: Binding affinity to 40S ribosomal protein S17 in human Hela cells lysates assessed as protein enrichment by measuring normalized heavy/light ratio at by nano-LC-ESIMS/MS analysis; assay type: cell-free
[4] = target: T1, 80S Ribosome (Homo sapiens); assay: Binding affinity to 40S ribosomal protein S18 in human Hela cells lysates assessed as protein enrichment by measuring normalized heavy/light ratio at by nano-LC-ESIMS/MS analysis; assay type: cell-free
[5] = target: T1, 80S Ribosome (Homo sapiens); assay: Binding affinity to 40S ribosomal protein S26 in human Hela cells lysates assessed as protein enrichment by measuring normalized heavy/light ratio at by nano-LC-ESIMS/MS analysis; assay type: cell-free
[6] = target: T1, 80S Ribosome (Homo sapiens); assay: Binding affinity to 40S ribosomal protein S30 in human Hela cells lysates assessed as protein enrichment by measuring normalized heavy/light ratio at by nano-LC-ESIMS/MS analysis; assay type: cell-free
[7] = target: T1, 80S Ribosome (Homo sapiens); assay: Binding affinity to 40S ribosomal protein S4 in human Hela cells lysates assessed as protein enrichment by measuring normalized heavy/light ratio at by nano-LC-ESIMS/MS analysis; assay type: cell-free
[8] = target: 60 kDa heat shock protein, mitochondrial (Homo sapiens) (UniProt P10809); assay: Binding affinity to 60 kDa heat shock protein in human Hela cells lysates assessed as protein enrichment by measuring normalized heavy/light ratio at by nano-LC-ESIMS/MS analysis; assay type: cell-free
Sequence of 60 kDa heat shock protein, mitochondrial (Homo sapiens) (P10809 whole entry): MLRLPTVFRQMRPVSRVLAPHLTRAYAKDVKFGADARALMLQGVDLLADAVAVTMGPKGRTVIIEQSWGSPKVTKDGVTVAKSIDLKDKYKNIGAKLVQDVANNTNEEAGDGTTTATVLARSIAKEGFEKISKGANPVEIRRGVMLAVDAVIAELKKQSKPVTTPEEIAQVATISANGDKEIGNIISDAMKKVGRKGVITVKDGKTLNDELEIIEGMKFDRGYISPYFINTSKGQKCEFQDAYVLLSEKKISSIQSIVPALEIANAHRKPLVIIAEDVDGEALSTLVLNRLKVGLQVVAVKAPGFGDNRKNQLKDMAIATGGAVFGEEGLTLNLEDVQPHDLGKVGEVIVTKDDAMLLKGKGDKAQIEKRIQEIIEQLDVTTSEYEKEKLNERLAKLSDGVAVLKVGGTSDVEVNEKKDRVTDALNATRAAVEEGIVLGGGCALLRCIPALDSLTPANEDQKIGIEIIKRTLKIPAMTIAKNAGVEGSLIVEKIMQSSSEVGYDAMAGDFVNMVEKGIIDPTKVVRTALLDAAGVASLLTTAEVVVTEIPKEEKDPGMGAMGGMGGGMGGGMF

[9] = target: Large ribosomal subunit protein P2 (Homo sapiens) (UniProt P05387); assay: Binding affinity to 60S acidic ribosomal protein P2 in human Hela cells lysates assessed as protein enrichment by measuring normalized heavy/light ratio at by nano-LC-ESIMS/MS analysis; assay type: cell-free
Sequence of Large ribosomal subunit protein P2 (Homo sapiens) (P05387 whole entry): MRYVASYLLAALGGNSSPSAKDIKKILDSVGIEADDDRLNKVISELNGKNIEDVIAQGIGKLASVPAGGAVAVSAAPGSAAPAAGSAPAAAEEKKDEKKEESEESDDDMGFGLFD

[10] = target: T1, 80S Ribosome (Homo sapiens); assay: Binding affinity to 60S ribosomal protein L10 in human Hela cells lysates assessed as protein enrichment by measuring normalized heavy/light ratio at by nano-LC-ESIMS/MS analysis; assay type: cell-free
[11] = target: T1, 80S Ribosome (Homo sapiens); assay: Binding affinity to 60S ribosomal protein L23 in human Hela cells lysates assessed as protein enrichment by measuring normalized heavy/light ratio at by nano-LC-ESIMS/MS analysis; assay type: cell-free
[12] = target: T1, 80S Ribosome (Homo sapiens); assay: Binding affinity to 60S ribosomal protein L9 in human Hela cells lysates assessed as protein enrichment by measuring normalized heavy/light ratio at by nano-LC-ESIMS/MS analysis; assay type: cell-free
[13] = target: Alkyldihydroxyacetonephosphate synthase, peroxisomal (Homo sapiens) (UniProt O00116); assay: Binding affinity to alkyldihydroxyacetone phosphate synthase in human Hela cells lysates assessed as protein enrichment by measuring normalized heavy/light ratio at by nano-LC-ESIMS/MS analysis; assay type: cell-free
Sequence of Alkyldihydroxyacetonephosphate synthase, peroxisomal (Homo sapiens) (O00116 whole entry): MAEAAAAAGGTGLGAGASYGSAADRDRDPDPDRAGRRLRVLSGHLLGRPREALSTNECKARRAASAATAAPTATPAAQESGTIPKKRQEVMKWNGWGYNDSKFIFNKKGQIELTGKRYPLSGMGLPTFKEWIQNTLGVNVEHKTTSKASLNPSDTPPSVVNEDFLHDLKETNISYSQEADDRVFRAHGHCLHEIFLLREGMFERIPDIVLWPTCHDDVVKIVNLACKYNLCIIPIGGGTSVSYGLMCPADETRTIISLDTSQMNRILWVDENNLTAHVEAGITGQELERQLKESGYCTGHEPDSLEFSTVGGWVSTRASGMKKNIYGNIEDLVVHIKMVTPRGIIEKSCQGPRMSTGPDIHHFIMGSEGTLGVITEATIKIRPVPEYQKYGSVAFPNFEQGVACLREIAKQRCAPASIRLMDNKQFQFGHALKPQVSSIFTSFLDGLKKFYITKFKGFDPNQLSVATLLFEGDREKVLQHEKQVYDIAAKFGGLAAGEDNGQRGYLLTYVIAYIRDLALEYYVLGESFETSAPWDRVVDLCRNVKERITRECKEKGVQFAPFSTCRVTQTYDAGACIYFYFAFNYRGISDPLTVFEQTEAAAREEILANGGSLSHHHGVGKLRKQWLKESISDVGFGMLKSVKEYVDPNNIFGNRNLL

[14] = target: Alpha-enolase (Homo sapiens) (UniProt P06733); assay: Binding affinity to alpha-enolase in human Hela cells lysates assessed as protein enrichment by measuring normalized heavy/light ratio at by nano-LC-ESIMS/MS analysis; assay type: cell-free
Sequence of Alpha-enolase (Homo sapiens) (P06733 whole entry): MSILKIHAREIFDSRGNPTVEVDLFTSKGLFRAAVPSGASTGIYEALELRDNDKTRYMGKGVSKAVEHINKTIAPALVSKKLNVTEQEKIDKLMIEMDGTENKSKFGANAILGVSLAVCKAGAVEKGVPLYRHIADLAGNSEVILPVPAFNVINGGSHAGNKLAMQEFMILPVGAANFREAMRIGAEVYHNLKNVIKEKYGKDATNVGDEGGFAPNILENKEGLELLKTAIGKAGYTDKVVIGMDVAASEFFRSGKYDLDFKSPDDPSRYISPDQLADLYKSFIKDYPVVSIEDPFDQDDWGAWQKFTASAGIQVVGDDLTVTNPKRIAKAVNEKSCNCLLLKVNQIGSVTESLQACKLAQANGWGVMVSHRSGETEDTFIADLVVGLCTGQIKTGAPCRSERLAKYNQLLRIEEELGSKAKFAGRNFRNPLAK

[15] = target: D-3-phosphoglycerate dehydrogenase (Homo sapiens) (UniProt O43175); assay: Binding affinity to D3-phosphoglycerate dehydrogenase in human Hela cells lysates assessed as protein enrichment by measuring normalized heavy/light ratio at by nano-LC-ESIMS/MS analysis; assay type: cell-free
Sequence of D-3-phosphoglycerate dehydrogenase (Homo sapiens) (O43175 whole entry): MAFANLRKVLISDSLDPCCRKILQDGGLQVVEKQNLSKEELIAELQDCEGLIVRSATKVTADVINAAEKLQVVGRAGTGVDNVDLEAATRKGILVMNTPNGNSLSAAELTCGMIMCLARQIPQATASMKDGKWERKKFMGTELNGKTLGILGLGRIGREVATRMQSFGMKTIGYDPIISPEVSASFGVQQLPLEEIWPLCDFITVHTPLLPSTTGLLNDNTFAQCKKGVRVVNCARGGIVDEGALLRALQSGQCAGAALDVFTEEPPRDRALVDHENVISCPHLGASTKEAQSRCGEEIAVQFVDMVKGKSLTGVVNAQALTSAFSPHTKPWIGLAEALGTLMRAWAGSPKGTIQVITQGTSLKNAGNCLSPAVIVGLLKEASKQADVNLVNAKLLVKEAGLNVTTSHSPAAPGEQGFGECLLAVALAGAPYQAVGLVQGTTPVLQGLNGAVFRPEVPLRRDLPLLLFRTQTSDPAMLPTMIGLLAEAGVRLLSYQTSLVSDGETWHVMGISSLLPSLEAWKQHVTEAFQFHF

[16] = target: Elongation factor 1-alpha 1 (Homo sapiens) (UniProt P68104); assay: Binding affinity to elongation factor 1-alpha 1 in human Hela cells lysates assessed as protein enrichment by measuring normalized heavy/light ratio at by nano-LC-ESIMS/MS analysis; assay type: cell-free
Sequence of Elongation factor 1-alpha 1 (Homo sapiens) (P68104 whole entry): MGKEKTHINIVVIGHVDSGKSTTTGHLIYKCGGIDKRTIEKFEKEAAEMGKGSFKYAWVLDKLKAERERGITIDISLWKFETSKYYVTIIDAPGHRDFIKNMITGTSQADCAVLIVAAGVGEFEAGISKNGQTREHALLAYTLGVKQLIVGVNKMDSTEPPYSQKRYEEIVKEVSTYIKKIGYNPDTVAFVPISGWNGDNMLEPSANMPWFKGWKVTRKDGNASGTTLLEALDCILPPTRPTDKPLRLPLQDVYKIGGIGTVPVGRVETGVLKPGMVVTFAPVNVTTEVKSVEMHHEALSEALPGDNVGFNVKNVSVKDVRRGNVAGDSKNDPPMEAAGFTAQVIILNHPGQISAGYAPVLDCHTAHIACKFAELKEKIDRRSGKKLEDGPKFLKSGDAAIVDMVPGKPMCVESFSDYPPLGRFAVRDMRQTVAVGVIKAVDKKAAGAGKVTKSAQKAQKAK

[17] = target: Glyceraldehyde-3-phosphate dehydrogenase (Homo sapiens) (UniProt P04406); assay: Binding affinity to glyceraldehyde-3-phosphate dehydrogenase in human Hela cells lysates assessed as protein enrichment by measuring normalized heavy/light ratio at by nano-LC-ESIMS/MS analysis; assay type: cell-free
Sequence of Glyceraldehyde-3-phosphate dehydrogenase (Homo sapiens) (P04406 2-335 limits assumed): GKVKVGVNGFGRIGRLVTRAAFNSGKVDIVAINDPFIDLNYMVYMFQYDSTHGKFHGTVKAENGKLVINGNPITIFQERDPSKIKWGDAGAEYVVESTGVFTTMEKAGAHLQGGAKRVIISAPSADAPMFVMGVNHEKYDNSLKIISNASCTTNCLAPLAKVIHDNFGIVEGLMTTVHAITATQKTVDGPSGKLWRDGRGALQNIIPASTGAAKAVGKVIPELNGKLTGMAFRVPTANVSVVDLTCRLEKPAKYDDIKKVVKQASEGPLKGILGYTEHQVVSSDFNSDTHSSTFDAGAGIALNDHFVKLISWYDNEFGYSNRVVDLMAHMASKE

[18] = target: GTP-binding nuclear protein Ran (Homo sapiens) (UniProt P62826); assay: Binding affinity to GTP-binding nuclear protein ran in human Hela cells lysates assessed as protein enrichment by measuring normalized heavy/light ratio at by nano-LC-ESIMS/MS analysis; assay type: cell-free
Homo sapiens = organism: Homo sapiens; assay: Binding affinity to histone H2A in human Hela cells lysates assessed as protein enrichment by measuring normalized heavy/light ratio at by nano-LC-ESIMS/MS analysis; assay type: cell-free
[19] = target: Solute carrier family 25 member 3 (Homo sapiens) (UniProt Q00325); assay: Binding affinity to phosphate carrier protein in human Hela cells lysates assessed as protein enrichment by measuring normalized heavy/light ratio at by nano-LC-ESIMS/MS analysis; assay type: cell-free
Sequence of Solute carrier family 25 member 3 (Homo sapiens) (Q00325 whole entry): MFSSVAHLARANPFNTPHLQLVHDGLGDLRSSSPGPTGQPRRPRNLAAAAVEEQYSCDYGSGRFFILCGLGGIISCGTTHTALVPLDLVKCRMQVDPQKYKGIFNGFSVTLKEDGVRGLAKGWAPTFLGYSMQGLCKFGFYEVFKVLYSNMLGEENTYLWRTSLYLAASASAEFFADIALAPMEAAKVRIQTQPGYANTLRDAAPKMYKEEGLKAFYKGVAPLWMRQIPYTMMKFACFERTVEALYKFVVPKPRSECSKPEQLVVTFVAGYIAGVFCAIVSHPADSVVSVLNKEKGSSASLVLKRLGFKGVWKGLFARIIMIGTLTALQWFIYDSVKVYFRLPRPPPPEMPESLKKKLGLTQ

[20] = target: Programmed cell death protein 6 (Homo sapiens) (UniProt O75340); assay: Binding affinity to programmed cell death protein 6 in human Hela cells lysates assessed as protein enrichment by measuring normalized heavy/light ratio at by nano-LC-ESIMS/MS analysis; assay type: cell-free
Sequence of Programmed cell death protein 6 (Homo sapiens) (O75340 whole entry): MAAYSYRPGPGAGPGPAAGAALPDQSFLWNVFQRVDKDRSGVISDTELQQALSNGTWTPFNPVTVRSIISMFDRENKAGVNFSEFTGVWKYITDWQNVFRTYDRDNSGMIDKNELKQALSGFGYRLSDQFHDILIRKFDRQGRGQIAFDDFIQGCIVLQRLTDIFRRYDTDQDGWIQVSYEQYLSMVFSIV

[21] = target: Putative annexin A2-like protein (Homo sapiens) (UniProt A6NMY6); assay: Binding affinity to putative annexin A2-like protein in human Hela cells lysates assessed as protein enrichment by measuring normalized heavy/light ratio at by nano-LC-ESIMS/MS analysis; assay type: cell-free
Sequence of Putative annexin A2-like protein (Homo sapiens) (A6NMY6 whole entry): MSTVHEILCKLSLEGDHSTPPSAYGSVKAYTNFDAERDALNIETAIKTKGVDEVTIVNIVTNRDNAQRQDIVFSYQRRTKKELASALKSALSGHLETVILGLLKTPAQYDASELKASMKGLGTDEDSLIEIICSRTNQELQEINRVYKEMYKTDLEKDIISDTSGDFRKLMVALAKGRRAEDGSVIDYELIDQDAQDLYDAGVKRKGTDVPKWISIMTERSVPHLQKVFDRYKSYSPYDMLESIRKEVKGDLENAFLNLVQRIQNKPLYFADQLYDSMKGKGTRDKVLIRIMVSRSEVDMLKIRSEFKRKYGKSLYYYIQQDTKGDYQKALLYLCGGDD

[22] = target: Rho-related GTP-binding protein RhoQ (Homo sapiens) (UniProt P17081); assay: Binding affinity to rho-related GTP-binding protein in human Hela cells lysates assessed as protein enrichment by measuring normalized heavy/light ratio at by nano-LC-ESIMS/MS analysis; assay type: cell-free
Sequence of Rho-related GTP-binding protein RhoQ (Homo sapiens) (P17081 whole entry): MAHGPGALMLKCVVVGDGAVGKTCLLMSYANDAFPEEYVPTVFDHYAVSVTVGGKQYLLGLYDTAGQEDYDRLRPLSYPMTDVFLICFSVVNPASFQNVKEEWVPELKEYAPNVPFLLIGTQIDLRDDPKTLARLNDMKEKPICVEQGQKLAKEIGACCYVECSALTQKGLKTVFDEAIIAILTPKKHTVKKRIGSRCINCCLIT

[23] = target: Transketolase (Homo sapiens) (UniProt P29401); assay: Binding affinity to transketolase in human Hela cells lysates assessed as protein enrichment by measuring normalized heavy/light ratio at by nano-LC-ESIMS/MS analysis; assay type: cell-free
Sequence of Transketolase (Homo sapiens) (P29401 whole entry): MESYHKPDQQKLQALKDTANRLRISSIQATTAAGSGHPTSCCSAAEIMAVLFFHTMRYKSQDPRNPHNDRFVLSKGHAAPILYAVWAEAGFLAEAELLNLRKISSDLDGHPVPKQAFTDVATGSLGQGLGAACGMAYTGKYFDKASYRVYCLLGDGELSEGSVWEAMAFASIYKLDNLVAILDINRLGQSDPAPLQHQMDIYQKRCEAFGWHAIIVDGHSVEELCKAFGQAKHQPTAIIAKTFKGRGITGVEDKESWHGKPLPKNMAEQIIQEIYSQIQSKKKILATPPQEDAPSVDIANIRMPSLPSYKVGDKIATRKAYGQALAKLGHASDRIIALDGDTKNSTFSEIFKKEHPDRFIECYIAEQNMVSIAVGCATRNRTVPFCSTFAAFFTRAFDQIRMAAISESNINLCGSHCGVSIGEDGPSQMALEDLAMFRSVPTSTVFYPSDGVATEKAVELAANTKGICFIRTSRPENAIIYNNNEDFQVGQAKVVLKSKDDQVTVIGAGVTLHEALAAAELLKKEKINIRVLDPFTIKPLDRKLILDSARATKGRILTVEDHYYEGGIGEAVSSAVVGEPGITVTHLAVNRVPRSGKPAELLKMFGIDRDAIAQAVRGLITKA

Trypsin (Homo sapiens) = Trypsin (Homo sapiens) (UniProt P07477+P07478+P35030); assay: Binding affinity to trypsin in human Hela cells lysates assessed as protein enrichment by measuring normalized heavy/light ratio at by nano-LC-ESIMS/MS analysis; assay type: cell-free
[24] = Binding affinity to brain acid soluble protein 1 in human Hela cells lysates assessed as protein enrichment by measuring normalized heavy/light ratio at by nano-LC-ESIMS/MS analysis

C/C=C(\C)C(=O)O[C@H]1[C@H](O)[C@]2(COC(C)=O)[C@@H](O)C[C@]3(C)C(=CC[C@@H]4[C@@]5(C)CC[C@H](O[C@@H]6O[C@H](C(=O)O)[C@@H](O)[C@H](O)[C@H]6O)[C@@](C)(CO)[C@@H]5CC[C@]43C)[C@@H]2CC1(C)C
Activity [1]: Active | Ratio [2]: 0.39 | Ratio [3]: 0.069 | Ratio [4]: 0.448 | Ratio [5]: 0.158 | Ratio [6]: 0.075 | Ratio [7]: 0.16 | Ratio [8]: 0.57 | Ratio [9]: 0.329 | Ratio [10]: 0.105 | Ratio [11]: 0.527 | Ratio [12]: 0.453 | Ratio [13]: 0.955 | Ratio [14]: 0.811 | Ratio [15]: 0.509 | Ratio [16]: 0.629 | Ratio [17]: 0.524 | Ratio [18]: 1.53 | Ratio (Homo sapiens): 0.509 | Ratio [19]: 0.57 | Ratio [20]: 0.68 | Ratio [21]: 0.988 | Ratio [22]: 0.706 | Ratio [23]: 0.623 | Ratio (Trypsin (Homo sapiens)): 1 | Ratio [24]: 0.744

From ChEMBL document CHEMBL4270485, “Determination of Gymnemic Acid I as a Protein Biosynthesis Inhibitor Using Chemical Proteomics” (J Nat Prod, 2017)
